Legend:
Type in all cases: physicochemical
[1] = Solubility of agrochemical actives in the solvents: visual observation at 0° C. after 7 days (CIPAC MT39 test); set-up: key: Crystal: When the formation of active crystals is observed, the term of <> is indicated; Limpid: When the solution remains limpid (absence of solid or cloudiness), it is the term of <> which is indicated; details: 7 days at 0° C.
Experimental: (§1) Formulations were made by diluting various actives, reported below in the table, in the compounds 1C, 2C, 3 and 4 synthesized above.
2) Visual observation at 0° C.
The formulation is placed at 0° C. for 7 days and the aspect of the formulation is noted and the presence of crystals is possibly located (CIPAC MT39 test).
(§2) The actives used are commercially available.

[2] = Solubility of agrochemical actives in the solvents: visual observation at 25° C.; set-up: key: Crystal: When the formation of active crystals is observed, the term of <> is indicated; Limpid: When the solution remains limpid (absence of solid or cloudiness), it is the term of <> which is indicated
Experimental: as §1
1) Visual observation at 25° C.
The aspect of the formulation is noted and the presence of crystals is possibly located.
as §2

[3] = Solubility of agrochemical actives in the solvents: visual observation at 0° C. with nucleation; set-up: key: Crystal: When the formation of active crystals is observed, the term of <> is indicated; Limpid: When the solution remains limpid (absence of solid or cloudiness), it is the term of <> which is indicated; details: crystal of active added, further 7 days at 0° C.
Experimental: Formulations were made by diluting various actives, reported below in the table, in the compounds 1C, 2C, 3 and 4 synthesized above. 3) Visual observation at 0° C. with nucleation (by introducing a crystal of the pure active into the liquid) A crystal of the active material is introduced into the formulation which has spent 7 days at 0° C. for nucleation, and the formulation is again placed for 7 days at 0° C. The aspect of the formulation is noted and the presence of crystals or the growth of the introduced crystal is possibly located. The actives used are commercially available.

[4] = Measurement of solubility of the solvent in water; details: +20° C., stirred 2 hours, visual limpidity
Experimental: In a glass flask, a specific weight of compound is weighed. A known mass of water is added on to this compound. T his mixture is magnetically stirred at a temperature of +20° C. for 2 hours. After this period, if visually, the solution has cloudiness or heterogeneity, a new mass of water is added to the mixture. This iteration occurs until a limpid solution is obtained. Maximum solubility is then less than the last value having led to a cloudy or heterogeneous mixture and greater than that having led to a limpid mixture.

[5] = Active Alachlor 48% EC in the compound as solvent
[6] = Active Azoxystrobin 25% EC in the compound as solvent
[7] = Active Difenconazole 25% EC in the compound as solvent
[8] = Active Dimethoate 40% EC in the compound as solvent
[9] = Active Oxyfluorfen 22% EC in the compound as solvent
[10] = Active Pendimethalin 33% EC in the compound as solvent
[11] = Active Phenmedipham 16% EC in the compound as solvent
[12] = Active Propanil 36% EC in the compound as solvent
[13] = Active Propuxur 20% EC in the compound as solvent
[14] = Active Tebuconazole 25% EC in the compound as solvent
[15] = Active Trifluralin 40% EC in the compound as solvent
[16] = Active alpha-Cypermethrin 10% EC in the compound as solvent
[17] = Active Chlorpyrifos 40% EC in the compound as solvent

Compound	Aspect at 0° C. [1, 5]	Aspect at 0° C. [1, 7]	Aspect at 0° C. [1, 8]	Aspect at 0° C. [1, 9]	Aspect at 0° C. [1, 10]	Aspect at 0° C. [1, 12]	Aspect at 0° C. [1, 13]	Aspect at 0° C. [1, 15]	Aspect at 0° C. [1, 16]	Aspect at 25° C. [2, 5]	Aspect at 25° C. [2, 7]	Aspect at 25° C. [2, 8]	Aspect at 25° C. [2, 9]	Aspect at 25° C. [2, 10]	Aspect at 25° C. [2, 12]	Aspect at 25° C. [2, 13]	Aspect at 25° C. [2, 15]	Aspect at 0° C. with nucleation [3, 5]	Aspect at 0° C. with nucleation [3, 7]	Aspect at 0° C. with nucleation [3, 12]	also measured
COC(=O)C(=O)N(C)C [Compound 1, methyl 2-(dimethylamino)-2-oxoacetate]	Limpid	Limpid	Crystal	Crystal	Crystal	Limpid	Limpid	Crystal	Limpid	Limpid	Limpid	Limpid	Limpid	Limpid	Limpid	Limpid	Limpid	Limpid	Limpid	Limpid	Aspect at 0° C. [1, 6]: Crystal; Aspect at 0° C. [1, 11]: Limpid; Aspect at 0° C. [1, 14]: Crystal; Aspect at 25° C. [2, 6]: Limpid; Aspect at 25° C. [2, 11]: Limpid; Aspect at 25° C. [2, 14]: Limpid; Aspect at 25° C. [2, 16]: Limpid; Aspect at 0° C. with nucleation [3, 11]: Limpid; Aspect at 0° C. with nucleation [3, 13]: Limpid; Aspect at 0° C. with nucleation [3, 16]: Limpid
CCOC(=O)C(=O)N(C)C [Compound 2, ethyl 2-(dimethylamino)-2-oxoacetate]	Limpid	Limpid	Limpid	Limpid	Crystal	Limpid	Crystal	Limpid	Limpid	Limpid	Limpid	Limpid	Limpid	Limpid	Limpid	Limpid	Limpid	Limpid	Limpid	Limpid	Aspect at 0° C. [1, 6]: Crystal; Aspect at 0° C. [1, 17]: Limpid; Aspect at 0° C. [1, 11]: Limpid; Aspect at 0° C. [1, 14]: Crystal; Aspect at 25° C. [2, 6]: Limpid; Aspect at 25° C. [2, 17]: Limpid; Aspect at 25° C. [2, 11]: Limpid; Aspect at 25° C. [2, 14]: Limpid; Aspect at 25° C. [2, 16]: Limpid; Aspect at 0° C. with nucleation [3, 17]: Limpid; Aspect at 0° C. with nucleation [3, 8]: Crystal; Aspect at 0° C. with nucleation [3, 9]: Limpid; Aspect at 0° C. with nucleation [3, 11]: Limpid; Aspect at 0° C. with nucleation [3, 15]: Limpid; Aspect at 0° C. with nucleation [3, 16]: Limpid
CCCCC(CC)COC(=O)C(=O)N(C)C (centres unmarked) [Compound 3, 2-ethyl-hexyl 2-(dimethylamino)-2-oxoacetate]	Limpid	Limpid	Crystal	Limpid	Crystal	Limpid	Crystal	Limpid	Limpid	Limpid	Limpid	Limpid	Limpid	Limpid	Limpid	Limpid	Limpid	Limpid	Limpid	Limpid	Aspect at 0° C. [1, 17]: Limpid; Aspect at 25° C. [2, 17]: Limpid; Aspect at 25° C. [2, 16]: Limpid; Solubility in water (wt %) [4]: <0.1 wt %; Aspect at 0° C. with nucleation [3, 17]: Limpid; Aspect at 0° C. with nucleation [3, 9]: Crystal; Aspect at 0° C. with nucleation [3, 15]: Limpid; Aspect at 0° C. with nucleation [3, 16]: Limpid
CCCCCCCCCCOC(=O)C(=O)N(C)C [Compound 4, n-decyl 2-(dimethylamino)-2-oxoacetate]	Limpid	Limpid	–	Limpid	–	Limpid	–	Crystal	–	Limpid	Limpid	–	Limpid	–	Limpid	–	Limpid	Limpid	Limpid	Limpid	Aspect at 0° C. [1, 17]: Crystal; Aspect at 25° C. [2, 17]: Limpid; Solubility in water (wt %) [4]: <0.025 wt %; Aspect at 0° C. with nucleation [3, 9]: Limpid
